According to US20030077689A1, “Microbial growth variations” (priority 1999, published 2003):

Test system: Staphylococcus aureus
Experiment: Replicate-well microdilution growth test (32 replicates per antibiotic concentration), growth ranked by viability in culture and direct epifluorescence
Assay type: cell-based
Details: for growth response of replicate wells: 5 hours at 37° C.
Description: Format: In general terms the entire series of tests followed the methods for use of microdilution plates. Each of the eight antibiotic concentrations was represented by 32 replicate wells, thus amounting to 8×32[256] test wells in a three plate array.
Organisms: Two cultures of Staphylococcus aureus, with one isolated from plates containing penicillin supplemented agar to provide cells of known β lactamase activity.
Inoculum: A target level of 10^2 cells/wells was selected to test an adequate number of organisms within each treatment. In the examples 2-4 the aim was to include an increasing proportion of resistant/β lactamase positive cells. Preparation by dilutions at these levels will undoubtedly be prone to errors.
Incubation: Sealed plates incubated for 5 hours at 37° C. [previously shown to provide significant growth]. At the end of incubation well contents […] were transferred to 200 μl using individual sterile pipette tips [i.e. one/well].
A 100 μl sample of diluted well contents was plated and spread on culture plates. The growth, corresponding to the situation at 5 hours, was assessed after incubation of the culture plates overnight.
ii. Direct Epifluorescence Method
A second 100 μl sample was filtered through a commercially available 0.2μ nuclepore membrane. This non-fluorescent, black filter was supported on a 5.0μcellulosic membrane filter. Discrete 3.0 mm diameter filter zones were created by attaching pre-punched black adhesive tape to the membranes. After filtration the zones were stained with 0.01% w/v Acriflavine™ in phosphate buffer at pH 7.2 [filtered immediately before use]. Direct observation, using an epifluorescence microscope resembles the DEFT method described by Pettifer G L Rodrigues U K [1982] J.Appl.Bact. 53:323-329. Using a large numerical aperture×45 objective it is relatively simple to rank the estimated density of growth.
The viability test depicts growth responses in terms of organisms recovered and subsequently able to produce colonies on a secondary culture plate. Direct epifluorescence/filtration does constitute rapid detection but in this manual form is both cumbersome and labour intensive. Within these constraints both methods served to assign rankings to the growth response of every well. The two methods were adequate to indicate the presence of growth.

Question: With Penicillin as the substance, how does the “growth response of replicate wells” value (Example 1 (no resistant cells added), antibiotic levels higher than 0.015 μg/ml) read?
Answer: no evidence of growth

Question: What about the “growth response of replicate wells” value (Examples 1-4, antibiotic concentration 0.004 μg/ml, 32 replicate wells) of the same substance?
Answer: all 32 replicate wells exhibit continued growth

Question: And the “growth response of replicate wells” value (Examples 1-4, antibiotic concentration 0.015 μg/ml)?
Answer: the population in some wells exhibits sensitivity

Question: What about the “growth response of replicate wells” value (Examples 2, 3 and 4 (inoculum with increasing proportion of resistant/β lactamase positive cells)) of the same substance?
Answer: an appreciable number of wells show low grade growth

Question: And the “sensitivity of resistant sub-populations in some wells” value (Examples 2, 3 and 4, antibiotic concentration 0.250 μg/ml)?
Answer: insensitive
